Test results: ChEMBL document CHEMBL1141196, “Grafting aminocyclopentane carboxylic acids onto the RGD tripeptide sequence generates low nanomolar alphaVbeta3/alphaVbeta5 integrin dual binders” (J Med Chem, 2005)

Assays:
Integrin alpha-V/beta-3 = Integrin alpha-V/beta-3 (Homo sapiens, UniProt P05106+P06756); assay: Displacement of [125I]-echistatin from alphavbeta3 integrin receptor; type: protein-complex assay
Integrin alpha-V/beta-5 = Integrin alpha-V/beta-5 (Homo sapiens, UniProt P06756+P18084); assay: Displacement of [125I]-echistatin from alpha-v-beta-5 integrin receptor; type: protein-complex assay
Chain of Integrin alpha-V/beta-5 (P06756 31-889 limits assumed): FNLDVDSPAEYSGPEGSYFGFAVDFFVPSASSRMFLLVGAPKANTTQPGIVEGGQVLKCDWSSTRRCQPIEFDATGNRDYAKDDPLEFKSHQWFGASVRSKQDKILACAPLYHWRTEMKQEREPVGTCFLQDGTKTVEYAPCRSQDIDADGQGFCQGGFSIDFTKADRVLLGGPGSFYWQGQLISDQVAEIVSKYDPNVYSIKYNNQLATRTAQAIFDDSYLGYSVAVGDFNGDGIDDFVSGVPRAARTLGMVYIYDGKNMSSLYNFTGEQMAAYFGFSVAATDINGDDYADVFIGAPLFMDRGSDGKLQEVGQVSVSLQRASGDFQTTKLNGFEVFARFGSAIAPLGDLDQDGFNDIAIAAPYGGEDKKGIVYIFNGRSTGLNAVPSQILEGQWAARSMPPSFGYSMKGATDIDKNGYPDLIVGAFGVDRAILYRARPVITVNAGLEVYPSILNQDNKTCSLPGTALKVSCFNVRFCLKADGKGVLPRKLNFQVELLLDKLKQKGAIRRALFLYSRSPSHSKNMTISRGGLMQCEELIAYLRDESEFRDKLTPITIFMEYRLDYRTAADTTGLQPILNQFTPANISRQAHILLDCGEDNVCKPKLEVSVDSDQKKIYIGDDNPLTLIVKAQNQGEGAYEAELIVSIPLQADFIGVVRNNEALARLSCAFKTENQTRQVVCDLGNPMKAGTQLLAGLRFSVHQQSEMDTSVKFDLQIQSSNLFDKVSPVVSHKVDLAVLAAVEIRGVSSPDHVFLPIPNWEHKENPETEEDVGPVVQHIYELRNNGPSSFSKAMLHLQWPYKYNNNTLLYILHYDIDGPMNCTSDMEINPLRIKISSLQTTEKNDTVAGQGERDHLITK
Chain of Integrin alpha-V/beta-5 (P06756 891-1048 limits assumed): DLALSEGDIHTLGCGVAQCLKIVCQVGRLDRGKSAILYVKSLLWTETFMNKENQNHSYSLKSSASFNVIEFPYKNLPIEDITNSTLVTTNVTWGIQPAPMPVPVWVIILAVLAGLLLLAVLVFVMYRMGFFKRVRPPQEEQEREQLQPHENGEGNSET
Chain of Integrin alpha-V/beta-5 (P18084 24-799 limits assumed): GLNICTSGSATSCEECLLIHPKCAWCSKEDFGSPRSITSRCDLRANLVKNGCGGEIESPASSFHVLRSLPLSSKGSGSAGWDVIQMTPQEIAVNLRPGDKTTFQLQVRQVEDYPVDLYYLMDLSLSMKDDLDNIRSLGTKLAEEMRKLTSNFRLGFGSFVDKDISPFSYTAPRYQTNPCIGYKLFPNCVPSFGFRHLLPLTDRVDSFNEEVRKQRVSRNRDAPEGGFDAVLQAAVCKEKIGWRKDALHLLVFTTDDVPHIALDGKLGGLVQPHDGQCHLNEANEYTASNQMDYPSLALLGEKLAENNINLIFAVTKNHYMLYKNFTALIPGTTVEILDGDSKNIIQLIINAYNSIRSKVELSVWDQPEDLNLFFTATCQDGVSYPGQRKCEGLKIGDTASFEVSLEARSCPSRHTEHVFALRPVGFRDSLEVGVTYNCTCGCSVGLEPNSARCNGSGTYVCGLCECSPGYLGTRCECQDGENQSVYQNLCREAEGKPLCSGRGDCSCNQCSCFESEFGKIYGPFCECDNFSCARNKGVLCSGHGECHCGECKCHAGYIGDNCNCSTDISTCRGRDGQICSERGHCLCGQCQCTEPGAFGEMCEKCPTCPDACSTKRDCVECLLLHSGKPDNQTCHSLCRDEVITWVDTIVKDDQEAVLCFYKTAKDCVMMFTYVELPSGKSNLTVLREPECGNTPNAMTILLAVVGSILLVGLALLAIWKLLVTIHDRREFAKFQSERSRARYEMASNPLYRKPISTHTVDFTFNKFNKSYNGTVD

Chain of Integrin alpha-V/beta-3 (P05106 27-788 limits assumed): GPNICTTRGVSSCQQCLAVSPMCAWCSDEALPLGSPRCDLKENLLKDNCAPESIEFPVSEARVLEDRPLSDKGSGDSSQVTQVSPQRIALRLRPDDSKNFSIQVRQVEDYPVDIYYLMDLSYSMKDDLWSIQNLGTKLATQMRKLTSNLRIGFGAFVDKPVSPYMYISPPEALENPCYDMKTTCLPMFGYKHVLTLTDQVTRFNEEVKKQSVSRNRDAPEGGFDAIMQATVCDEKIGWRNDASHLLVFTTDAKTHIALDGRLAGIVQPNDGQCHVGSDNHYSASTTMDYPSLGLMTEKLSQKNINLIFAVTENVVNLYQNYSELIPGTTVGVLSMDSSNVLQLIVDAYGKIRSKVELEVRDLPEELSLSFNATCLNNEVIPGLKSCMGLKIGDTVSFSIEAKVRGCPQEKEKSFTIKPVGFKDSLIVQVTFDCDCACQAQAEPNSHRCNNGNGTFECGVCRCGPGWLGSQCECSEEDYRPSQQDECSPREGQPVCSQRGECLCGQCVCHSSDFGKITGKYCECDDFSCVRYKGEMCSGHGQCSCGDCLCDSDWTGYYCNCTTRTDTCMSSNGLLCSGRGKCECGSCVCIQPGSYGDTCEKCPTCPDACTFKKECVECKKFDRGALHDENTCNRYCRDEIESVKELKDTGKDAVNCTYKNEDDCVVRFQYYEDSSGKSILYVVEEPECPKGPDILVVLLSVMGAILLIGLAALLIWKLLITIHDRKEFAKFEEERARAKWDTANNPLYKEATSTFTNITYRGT
Chain of Integrin alpha-V/beta-3 (P06756 31-889 limits assumed): as the sequence (P06756 31-889 limits assumed) above
Chain of Integrin alpha-V/beta-3 (P06756 891-1048 limits assumed): as the sequence (P06756 891-1048 limits assumed) above

Row | SMILES | IC50 (Integrin alpha-V/beta-3) [nM] | IC50 (Integrin alpha-V/beta-5) [nM]
1 | NC(N)=NCCC[C@@H]1NC(=O)[C@H]2CC[C@@H]3CCC[C@H](NC(=O)[C@H](CC(=O)O)NC(=O)CNC1=O)C(=O)N32 | 1.4 | 1.16
2 | N=C(N)NCCC[C@@H]1NC(=O)[C@@H]2CC[C@H](C2)NC(=O)[C@H](CC(=O)O)NC(=O)CNC1=O | 1.5 | 0.59
3 | N=C(N)NCCC[C@@H]1NC(=O)[C@@H]2C[C@@H](O)[C@@H](C2)NC(=O)[C@H](CC(=O)O)NC(=O)CNC1=O | 7.2 | 13.1
4 | N=C(N)NCCC[C@@H]1NC(=O)[C@@H]2CC[C@@H](C2)NC(=O)[C@H](CC(=O)O)NC(=O)CNC1=O | 7.7 | 6.56
5 | N=C(N)NCCC[C@@H]1NC(=O)[C@H]2CC[C@@H](C2)NC(=O)[C@H](CC(=O)O)NC(=O)CNC1=O | 9.93 | 26
6 | N=C(N)NCCC[C@@H]1NC(=O)[C@H]2C[C@H](NC(=O)[C@H](CC(=O)O)NC(=O)CNC1=O)[C@@H](O)C2 | 35.6 | 29.6
7 | N=C(N)NCCC[C@@H]1NC(=O)[C@@H]2C[C@H](NC(=O)[C@H](CC(=O)O)NC(=O)CNC1=O)[C@@H](O)[C@H]2O | 51.4 | 166
8 | N=C(N)NCCC[C@@H]1NC(=O)[C@@H]2C[C@H](NC(=O)[C@H](CC(=O)O)NC(=O)CNC1=O)[C@@H](O)[C@@H]2O | 44.7 | 125
9 | N=C(N)NCCC[C@@H]1NC(=O)[C@H]2CC[C@H](C2)NC(=O)[C@H](CC(=O)O)NC(=O)CNC1=O | 4.6 | 3.43
10 | N=C(N)NCCC[C@@H]1NC(=O)[C@@H]2C[C@H](NC(=O)[C@H](CC(=O)O)NC(=O)CNC1=O)[C@@H](O)C2 | 5.6 | 4.56
11 | N=C(N)NCCC[C@@H]1NC(=O)[C@H]2C[C@@H](NC(=O)[C@H](CC(=O)O)NC(=O)CNC1=O)[C@H](O)[C@@H]2O | 713 | 1300
12 | N=C(N)NCCC[C@@H]1NC(=O)[C@H]2C[C@@H](NC(=O)[C@H](CC(=O)O)NC(=O)CNC1=O)[C@H](O)[C@H]2O | 133 | 411
